Patent US20240182446A1, “TYK2 INHIBITOR COMPOUND CONTAINING BICYCLIC RING” (CHIA TAI TIANQING PHARMACEUTICAL GROUP CO., LTD., priority 2021, published 2024)
Where two headings read alike, the source gives them in different places. Marks after values point to notes of the source that are not given here.

Tests used:
[1] = tested on: STAT3 phosphorylation in Jurkat cells; test: Detection of STAT3 phosphorylation using Jurkat cells stimulated with IFN-α; format: cell-based; conditions: Homo sapiens, IFN-α 25 ng/mL, 30 min, compound pre-incubation 1.5 h
Procedure: 20 μL of Jurkat cells growing at log phase were taken and counted, and the required number of cells (mL) were taken and centrifuged at 1300 rpm for 3 min. Phenol red-free 1640 base medium (Hyclone) was added to adjust the cell density to about 1.7*10E7 cells/mL. The cells were seeded according to the above cell density in a 384-well plate (small-volume white plate) at 8 μL per well. The compound was added with a nanoliter pipettor, and the plate was incubated for 1.5 h. IFN-α (Beijing Sino Biological) was diluted to 75 ng/mL (with a final concentration of 25 ng/mL) with phenol red-free 1640 base medium. Subsequently, 4 μL of IFN-α (3×) was added to each well according to the plate distribution. The blank group was seeded with cells, without compound and IFN-α. The control group was seeded with cells, without compound but with IFN-α. The plate was incubated at 37° C. for 30 min. 4 μL of lysis buffer (4×) containing blocking buffer was added immediately, and the cells were lysed by shaking at room temperature for 40 min. […] pre-mixed antibody (vol/vol) in assay buffer was added and the plate was covered. The mixture was mixed well by centrifugation and incubated overnight at room temperature. Signal values at 665 nm/620 nm were detected using a PE Envision multi-functional microplate reader, and IC50 was calculated by tour-parameter fitting.

[2] = In vitro stability in liver microsomes (mouse); format: in vitro ADME; conditions: compound 1 μM
Procedure: (§1) 300 μL of the final incubation system contained 30 μL of liver microsomes (protein concentration: 5 mg/mL). 30 μL of NADPH+MgCl2, 3 μL of the test compound (in acetonitrile), and 237 μL of PBS buffer (pH 7.4), wherein the proportion of the organic solvent (acetonitrile) was 1% (volume ratio). Samples were prepared in duplicate of 0.30 mL for each specie. Tubes each containing 270 μL of a mixed solution of substrate and enzyme and NADPH were pre-incubated at 37° C. for 5 min. 30 μL of NADPH+MgCl2 was added and the mixture was mixed. 50 μL of the mixture was taken at 0 min, 10 min, 30 min, and 60 min, and 300 μL of glacial acetonitrile containing an internal standard was added to terminate the reaction.
(§2) 300 μL of glacial acetonitrile containing an internal standard (20 ng/mL) was added to 50 μL of the incubated sample for precipitation. The mixture was vortexed for 10 min and centrifuged (13,000 rpm, 20° C.) for 10 min. 70 μL of supernatant was taken and diluted with 70 μL of ultrapure water. After being mixed well, 0.5 μL of the resulting sample was subjected to LC/MS/MS analysis.

[3] = tested on: mouse colitis model induced by anti-mouse CD40 antibody; test: Pharmacodynamics in mouse colitis model induced by anti-CD40 mAb antibody; format: in vivo, CB17-SCID mice; conditions: Day 7, vs model control
Procedure: SPF-grade male CB17-SCID mice (6-8 weeks old) were divided into groups on the first day of the experiment. On the first day of the experiment, the mice in the blank group were intraperitoneally injected with PBS, while the mice in the model group were intraperitoneally injected with anti-mouse CD40 antibody (100 μg, diluted with PBS as a modeling agent solution), so as to establish a mouse colitis model. The injection volume for all groups of mice was 0.1 mL.
The day of grouping was determined as Day 1, and the intragastric administration was started on the grouping day, with a volume of 2 mL/kg administered twice daily for 6 consecutive days. The vehicle for intragastric administration was: DMSO:PEG400=5:95 (volume ratio).
Animal body weights were monitored daily during the experiment. On Day 7, the end point of the experiment, all mice were euthanized and tissue samples were collected. Mice were euthanized by cervical dislocation, abdomen of the mice were cut open, and mouse spleens were collected, weighed, and photographed. The colorectum was separated from the small intestine from the end of the cecum to the anus, and the whole colorectum was removed, photographed, and then dissected longitudinally along its longitudinal axis. The intestinal contents were cleansed with a pre-cooled saline solution. The rinsed colorectum was laid flat in a large flat dish with the mucosal side thereof facing upward. Residual saline solution was removed from the […] with filter paper, and colonic tissues were taken for weighing.
The inhibition rate (%) was calculated according to the following formula: inhibition rate (%)=(M−T)/(M−C)*100% (T: treatment group; C: blank control group; M: model control group).

[4] = In vitro stability in liver microsomes (human); format: in vitro ADME; conditions: compound 1 μM
Procedure: as §1, §2

[5] = In vivo pharmacokinetics in mice; conditions: ICR mice, plasma; for AUC(0-t): read-out: AUC(0-10 h); for MRT last: read-out: MRT(0-t)
Procedure: ICR mice (Shanghai Institute of Planned Parenthood Research) of 6-8 weeks old, weighing 20-24 g, were randomized into groups of 9 after 3-5 days of acclimatization, and the test compounds at a dose of 15 mg/kg or 30 mg/kg were administered intragastrically to the mice.
The animals to be tested (ICR mice) were fasted for 12 h before administration and food was provided 4 h after administration, and water was freely drunk before and after the experiment and during the experiment.
After intragastrric administration, about 0.1 mL of blood was collected from the orbit at 0.25 (15 min), 0.5 (30 min), 1, 2, 4, 6, 8, and 10 h. Each mouse was subjected to blood collection at 3-4 time points, with three mice per time point. The blood samples were mixed with EDTA-K2 anticoagulant, transferred to a centrifuge within 30 min, and then centrifuged at 4000 rpm for 10 min. at 4° C. to separate the plasma. All the plasma samples were collected and immediately stored at −20° C. for testing.
400 μL of acetonitrile solution containing an internal standard (20 ng/mL) was added to 20 μL of the collected plasma sample to be tested. The mixture was shaken and mixed well for 10 min, and centrifuged at 13,000 rpm for 10 min 50 μL of supernatant was taken and diluted with 100 μL of ultrapure water. After being mixed well, 0.5 μL of the resulting sample was subjected to LC/MS/MS, and a chromatogram was recorded.
Oral exposure of the compounds disclosed herein was evaluated by in vivo pharmacokinetic experiments in mice.

[6] = In vitro stability in liver microsomes (monkey); format: in vitro ADME; conditions: compound 1 μM
Procedure: as §1, §2

IC50 [1] [nM]	Mouse Residuals at 60 min (%) [2] [%]	Human Residuals at 60 min (%) [4] [%]	Compound	other results
5.3			[2H]C([2H])([2H])NC(=O)c1nnc(NC(=O)C2CC2)cc1Nc1cccc(-c2ncc(-c3cccnc3C#N)cn2)c1OC [Compound 26-h]	
3.4	92.35		[2H]C([2H])([2H])NC(=O)c1nnc(NC(=O)C2CC2)cc1Nc1cccc(-c2ncc(-c3cncnc3C)cn2)c1OC [Compound 54-j]	
8.5			[2H]C([2H])([2H])NC(=O)c1cnc(NC(=O)C2CC2)cc1Nc1cccc(-c2ncc(N3CCCC3)cn2)c1OC [Compound 60-j]	
2.7			[2H]C([2H])([2H])NC(=O)c1nnc(NC(=O)C2CC2)cc1Nc1cccc(-c2ncc(-c3cccnc3C)cn2)c1OC [Compound 52-j]	Spleen coefficient Inhibition rate (%) ([3]; 15 mg/kg i.g. bid for 6 days): 101%***; Spleen weight Inhibition rate (%) ([3]; 15 mg/kg i.g. bid for 6 days): 102%***; Weight of intestinal tissue per unit length Inhibition rate (%) ([3]; 15 mg/kg i.g. bid for 6 days): 101%***
5.2			[2H]C([2H])([2H])NC(=O)c1nnc(NC(=O)C2CC2)cc1Nc1cccc(-c2ncc(-n3ccnc3C)cn2)c1OC [Compound 55-j]	
2.4			[2H]C([2H])([2H])NC(=O)c1nnc(NC(=O)C2CC2)cc1Nc1cccc(-c2ncc(N3CC(C)(C)CC3=O)cn2)c1OC [Compound 47-j]	
7.1	96.42		[2H]C([2H])([2H])NC(=O)c1nnc(NC(=O)C2CC2)cc1Nc1cccc(-c2ncc(N3CC(O)C3)cn2)c1OC [Compound 51-j]	
5.2			[2H]C([2H])([2H])NC(=O)c1nnc(NC(=O)C2CC2)cc1Nc1cccc(-c2ncc(N3CCC(C)(C)C3=O)cn2)c1OC [Compound 49-j]	
	91.31	98.44	[2H]C([2H])([2H])NC(=O)c1nnc(NC(=O)C2CC2)cc1Nc1cccc(-c2ncc(N3CC[C@@H](O)C3)cn2)c1OC [Compound 44-j]	
5.7	92.69	99.75	[2H]C([2H])([2H])NC(=O)c1nnc(NC(=O)C2CC2)cc1Nc1cccc(-c2ncc(-c3ccnn3C)cn2)c1OC [Compound 34-h]	AUC(0-inf) ([5]; mouse, po, IG 15 mg/kg): 66700 ng·h/mL; Tmax ([5]; mouse, po, IG 15 mg/kg): 4 h; half-life ([5]; mouse, po, IG 15 mg/kg): 4.19 h; AUC(0-t) ([5]; mouse, po, IG 15 mg/kg): 65300 ng·h/mL; Cmax ([5]; mouse, po, IG 15 mg/kg, read-out: Cmax): 10200 ng/mL; MRT last ([5]; mouse, po, IG 15 mg/kg): 4.44 h; Spleen coefficient Inhibition rate (%) ([3]; 5 mg/kg i.g. bid for 6 days): 83%***; Spleen weight Inhibition rate (%) ([3]; 5 mg/kg i.g. bid for 6 days): 82%***; Weight of intestinal tissue per unit length Inhibition rate (%) ([3]; 5 mg/kg i.g. bid for 6 days): 70%***
4.5			[2H]C([2H])([2H])NC(=O)c1nnc(NC(=O)C2CC2)cc1Nc1cccc(-c2ncc(-c3ccc(F)nc3F)cn2)c1OC [Compound 12-j]	
4.4			[2H]C([2H])([2H])NC(=O)c1cnc(NC(=O)C2CC2)cc1Nc1cccc(-c2ncc(-c3cccnc3F)cn2)c1OC [Compound 57-j]	
2.9	99.08	107.15	[2H]C([2H])([2H])NC(=O)c1nnc(NC(=O)C2CC2)cc1Nc1cccc(-c2ncc(-c3cccnc3F)cn2)c1OC [Compound 5-j]	Monkey Residuals at 60 min (%) [6]: 99.31%; AUC(0-inf) ([5]; mouse, po, IG 30 mg/kg): 62600 ng·h/mL; Tmax ([5]; mouse, po, IG 30 mg/kg): 0.5 h; half-life ([5]; mouse, po, IG 30 mg/kg): 4.48 h; AUC(0-t) ([5]; mouse, po, IG 30 mg/kg): 60800 ng·h/mL; Cmax ([5]; mouse, po, IG 30 mg/kg, read-out: Cmax): 8100 ng/mL; MRT last ([5]; mouse, po, IG 30 mg/kg): 6.26 h
	99.92	103.99	[2H]C([2H])([2H])NC(=O)c1nnc(NC(=O)C2CC2)cc1Nc1cccc(-c2ncc(-c3ccc(F)nc3)cn2)c1OC [Compound 3-j]	Monkey Residuals at 60 min (%) [6]: 95.82%
2.4		100.18	[2H]C([2H])([2H])NC(=O)c1nnc(NC(=O)C2CC2)cc1Nc1cccc(-c2ncc(-c3cccnc3C(F)(F)F)cn2)c1OC [Compound 6-j]	Cmax ([5]; IG 30 mg/kg): 12534 ng/mL; t1/2 ([5]; IG 30 mg/kg): 6.26 h; AUC(0-inf) ([5]; mouse, po, IG 30 mg/kg): 63600 ng·h/mL; Tmax ([5]; mouse, po, IG 30 mg/kg): 0.5 h; AUC(0-t) ([5]; mouse, po, IG 30 mg/kg): 61200 ng·h/mL; MRT last ([5]; mouse, po, IG 30 mg/kg): 4.74 h; Spleen coefficient Inhibition rate (%) ([3]; 5 mg/kg i.g. bid for 6 days): 81.78%**; Spleen weight Inhibition rate (%) ([3]; 5 mg/kg i.g. bid for 6 days): 83.38%; Weight of intestinal tissue per unit length Inhibition rate (%) ([3]; 5 mg/kg i.g. bid for 6 days): 76.21%***
5.3	94.80	106.77	[2H]C([2H])([2H])NC(=O)c1nnc(NC(=O)C2CC2)cc1Nc1cccc(-c2ncc(N3CCCC3=O)cn2)c1OC [Compound 18-h]	
5	100.66		[2H]C([2H])([2H])NC(=O)c1nnc(NC(=O)C2CC2)cc1Nc1cccc(-c2ncc(N3CC[C@@H](O)C3)cn2)c1OC [Compound 59-j]	
5.1	94.17		[2H]C([2H])([2H])NC(=O)c1nnc(NC(=O)C2CC2)cc1Nc1cccc(-c2ncc(N3CC[C@H](O)C3)cn2)c1OC [Compound 53-j]	
4.5			[2H]C([2H])([2H])NC(=O)c1nnc(NC(=O)C2CC2)cc1Nc1cccc(-c2ncc(-c3cccnc3)cn2)c1OC [Compound 1-j]	
